Data set [1] concerns CCRF-CEM human acute lymphoblastic leukemia cell line. Briefly: MTT antiproliferative assay, CCRF-CEM. The class given is cell-based. The method, then: (§1) The antiproliferative activity and cytotoxicity of ester tethered ART-isatin hybrids 7a-u against human myeloid leukemia cell lines (K562 CM-0130 purchased from Procell and K562/ADR AW-CELLS-H0187 purchased from AnWei-sci), human acute lymphoblastic leukemia cell line (CCRF-CEM CL-0058 purchased from Procell) as well as cytotoxicity towards normal human peripheral blood mononuclear cells (PBMCs 230470, purchased from Mingzhoubio) were assessed by 3-(4,5-dimethylthiazol-2-yl)-2,5-diphenyltetrazolium bromide (MTT) assay.
(§2) Medium in wells was replaced after 24 h with fresh medium containing the tested compounds in DMSO (1% v/v) and incubated for 72 h. […] 3-(4,5-dimethyl-2-thiazolyl)-2,5-diphenyltetrazolium bromide (MTT) solution (10 µL) was added to each well, and the cultures were incubated for an additional 4 h at 37°C. A further 100 µL of […] was added and incubation continued overnight at 37°C. The absorbance at 540 nm was determined in each well with a 96-well plate reader. The growth of the treated cells was compared with that of untreated cells. Half maximum inhibitory concentration (IC50) is a measurement of the efficacy of a substance in inhibiting a specific biological or biochemical process. […] In this experiment, the dose-response curve constructed by Spss22.0 software was used to calculate the inhibitory effect of the hybrid (0 μM-100 μM) on the activity of leukemia cell lines. Each experiment was performed independently in triplicate with three tests in each, and results were reported as mean inhibitory concentration IC50.
On the technique in general: Tetrazolium dyes change colour on reduction, which living cells bring about.

The test system of data set [2] is K562 human myeloid leukemia cell line. Briefly: MTT antiproliferative assay, K562. Type of data set: cell-based. The protocol: as §1, §2
Data set [3] has as its system K562/ADR human myeloid leukemia cell line. In words: MTT antiproliferative assay, K562/ADR. Type of data set: cell-based. The method, then:
as §1, with “assay. The antiproliferative activity was expressed by half maximal inhibitory concentration (IC50) values, which were presented in Table 2 .” for “assay.”
as §2

A short description of data set [4]: MTT cytotoxicity assay, normal PBMCs. Type of data set: cell-based, human. Conditions: normal peripheral blood mononuclear cells (PBMCs); MTT assay, normal human PBMCs. The protocol:
as §1

The test system of data set [5] is normal human peripheral blood mononuclear cells (PBMCs). In words: MTT cytotoxicity assay, normal PBMCs. As to conditions: PBMCs vs CCRF-CEM. Type of data set: cell-based. The method, then: as §1

Molecules are shown by their SMILES.

As usually defined, the IC50 is the midpoint of a concentration-inhibition curve. Low values mean inhibition by little substance, high ones a need for much substance. `CON=C1C(=O)N(CCC(=O)OC2O[C@@H]3O[C@@]4(C)CC[C@H]5[C@H](C)CC[C@@H]([C@H]2C)[C@@]35OO4)c2ccccc21` (stereo partly drawn) [hybrid 7e, (3R,5aS,6R,8aS,9R,12R,12aR)-3,6,9-trimethyldecahydro-12H-3,12-epoxy[1,2]dioxepino[4,3-i]isochromen-10-yl 3-(3-(methoxyimino)-2-oxoindolin-1-yl)propanoate]: the IC50 in data set [1] is 15.2 µM; in data set [2] it was 3.78 µM; in data set [3] it was 22.7 µM; in data set [4], > 100 µM. The “SI, Selectivity index, IC50(PBMCs)/IC50(CCRF-CEM)” value (shortened to “SI, Selectivity index”) in data set [5] is >6.59.

For `CON=C1C(=O)N(CC(=O)OC2O[C@@H]3O[C@@]4(C)CC[C@H]5[C@H](C)CC[C@@H]([C@H]2C)[C@@]35OO4)c2ccc(F)cc21` (stereo partly drawn) [hybrid 7c, (3R,5aS,6R,8aS,9R,12R,12aR)-3,6,9-trimethyldecahydro-12H-3,12-epoxy[1,2]dioxepino[4,3-i]isochromen-10-yl 2-(5-fluoro-3-(methoxyimino)-2-oxoindolin-1-yl)acetate], the IC50 is 29.4 µM in data set [1], > 100 µM in data set [2], > 100 µM in data set [3] and > 100 µM in data set [4].

For the compound `C[C@@H]1CC[C@H]2[C@@H](C)C(OC(=O)CN3C(=O)C(=NOCc4ccccc4)c4ccccc43)O[C@@H]3O[C@@]4(C)CC[C@@H]1[C@]32OO4` (stereo partly drawn) [hybrid 7b, (3R,5aS,6R,8aS,9R,12R,12aR)-3,6,9-trimethyldecahydro-12H-3,12-epoxy[1,2]dioxepino[4,3-i]isochromen-10-yl 2-(3-[(benzyloxy)imino)-2-oxoindolin-1-yl]acetate], the 50% inhibitory concentration (IC50) in data set [1], in data set [2] and in data set [3] was > 100 µM in each case.

Turning to `COc1cccc2c1C(=O)c1c(O)c3c(c(O)c1C2=O)C[C@@](O)(C(=O)CO)C[C@@H]3O[C@H]1C[C@H](N)[C@H](O)[C@H](C)O1` [Adriamycin, reference compound], the half-inhibitory concentration (IC50) in data set [1] is 0.01 µM; in data set [2], 4.89 µM; in data set [3], > 100 µM; in data set [4], 46.9 µM. Also, in data set [5], the “SI, Selectivity index” value came out at 4690.

Take `CON=C1C(=O)N(CCCC(=O)OC2O[C@@H]3O[C@@]4(C)CC[C@H]5[C@H](C)CC[C@@H]([C@H]2C)[C@@]35OO4)c2ccc(OC)cc21` (stereo partly drawn) [hybrid 7s, (3R,5aS,6R,8aS,9R,12R,12aR)-3,6,9-trimethyldecahydro-12H-3,12-epoxy[1,2]dioxepino[4,3-i]isochromen-10-yl 4-(5-methoxy-3-(methoxyimino)-2-oxoindolin-1-yl)butanoate]: the IC50 is 3.82 µM in data set [1], > 100 µM in data set [2], > 100 µM in data set [3] and > 100 µM in data set [4]. Also, the “SI, Selectivity index” value in data set [5] is listed as >26.17.

Consider `CCON=C1C(=O)N(CCC(=O)OC2O[C@@H]3O[C@@]4(C)CC[C@H]5[C@H](C)CC[C@@H]([C@H]2C)[C@@]35OO4)c2ccc(F)cc21` (stereo partly drawn) [hybrid 7i, (3R,5aS,6R,8aS,9R,12R,12aR)-3,6,9-trimethyldecahydro-12H-3,12-epoxy[1,2]dioxepino[4,3-i]isochromen-10-yl 3-(3-(ethoxyimino)-5-fluoro-2-oxoindolin-1-yl)propanoate], for which the IC50 in data set [1] was > 100 µM; in data set [2], 15.9 µM; in data set [3], > 100 µM.

As to `CCON=C1C(=O)N(CCC(=O)OC2O[C@@H]3O[C@@]4(C)CC[C@H]5[C@H](C)CC[C@@H]([C@H]2C)[C@@]35OO4)c2ccc(OC)cc21` (stereo partly drawn) [hybrid 7l, (3R,5aS,6R,8aS,9R,12R,12aR)-3,6,9-trimethyldecahydro-12H-3,12-epoxy[1,2]dioxepino[4,3-i]isochromen-10-yl 3-(5-methoxy-3-(ethoxyimino)-2-oxoindolin-1-yl)propanoate], the concentration for half-maximal inhibition (IC50) in data set [1] is 19.4 µM; in data set [2], > 100 µM; in data set [3] it was > 100 µM; in data set [4] it was > 100 µM. In addition, the “SI, Selectivity index” value in data set [5] was >5.16.

For `C[C@@H]1CC[C@H]2[C@@H](C)C(=O)O[C@@H]3O[C@@]4(C)CC[C@@H]1[C@]32OO4` [ART, Artemisinin], the concentration for half-maximal inhibition (IC50) in data set [1], in data set [2] and in data set [3] was > 100 µM throughout.

On to `CON=C1C(=O)N(CCC(=O)OC2O[C@@H]3O[C@@]4(C)CC[C@H]5[C@H](C)CC[C@@H]([C@H]2C)[C@@]35OO4)c2ccc(F)cc21` (stereo partly drawn) [hybrid 7h, (3R,5aS,6R,8aS,9R,12R,12aR)-3,6,9-trimethyldecahydro-12H-3,12-epoxy[1,2]dioxepino[4,3-i]isochromen-10-yl 3-(5-fluoro-3-(methoxyimino)-2-oxoindolin-1-yl)propanoate], for which the IC50 in data set [1] was 1.31 µM; in data set [2], > 100 µM; in data set [3], 16.2 µM; in data set [4] it was > 100 µM. Moreover, the “SI, Selectivity index” value in data set [5] is on record as >76.33.

As for `C[C@@H]1CC[C@H]2[C@@H](C)C(OC(=O)CCN3C(=O)C(=NOCc4ccccc4)c4cc(F)ccc43)O[C@@H]3O[C@@]4(C)CC[C@@H]1[C@]32OO4` (stereo partly drawn) [hybrid 7j, (3R,5aS,6R,8aS,9R,12R,12aR)-3,6,9-trimethyldecahydro-12H-3,12-epoxy[1,2]dioxepino[4,3-i]isochromen-10-yl 3-(3-[(benzyloxy)imino)-5-fluoro-2-oxoindolin-1-yl]propanoate], the IC50 in data set [1] was > 100 µM; in data set [2] it was > 100 µM; in data set [3], 3.83 µM.

On to `CON=C1C(=O)N(CCCC(=O)OC2O[C@@H]3O[C@@]4(C)CC[C@H]5[C@H](C)CC[C@@H]([C@H]2C)[C@@]35OO4)c2ccc(F)cc21` (stereo partly drawn) [hybrid 7p, (3R,5aS,6R,8aS,9R,12R,12aR)-3,6,9-trimethyldecahydro-12H-3,12-epoxy[1,2]dioxepino[4,3-i]isochromen-10-yl 4-(3-(methoxyimino)-5-fluoro-2-oxoindolin-1-yl)butanoate], for which the IC50 in data set [1] is 18.6 µM; in data set [2], 49.8 µM; in data set [3] it was > 100 µM; in data set [4], > 100 µM. Besides, the “SI, Selectivity index” value in data set [5] is recorded as >5.36.

Take `O=C(CCCCCCC(=O)Nc1ccccc1)NO` [Vorinostat, reference compound]: the IC50 in data set [3] is 2.18 µM.

Take `CCON=C1C(=O)N(CCCC(=O)OC2O[C@@H]3O[C@@]4(C)CC[C@H]5[C@H](C)CC[C@@H]([C@H]2C)[C@@]35OO4)c2ccccc21` (stereo partly drawn) [hybrid 7n, (3R,5aS,6R,8aS,9R,12R,12aR)-3,6,9-trimethyldecahydro-12H-3,12-epoxy[1,2]dioxepino[4,3-i]isochromen-10-yl 4-(3-(ethoxyimino)-2-oxoindolin-1-yl)butanoate]: the IC50 in data set [1], in data set [2] and in data set [3] was > 100 µM each time.

`COc1ccc2c(c1)C(=NOCc1ccccc1)C(=O)N2CCCC(=O)OC1O[C@@H]2O[C@@]3(C)CC[C@H]4[C@H](C)CC[C@@H]([C@H]1C)[C@@]24OO3` (stereo partly drawn) [hybrid 7u, (3R,5aS,6R,8aS,9R,12R,12aR)-3,6,9-trimethyldecahydro-12H-3,12-epoxy[1,2]dioxepino[4,3-i]isochromen-10-yl 4-(3-[(benzyloxy)imino)-5-methoxy-2-oxoindolin-1-yl]butanoate]: the half-maximal inhibitory concentration (IC50) in data set [1] was 2.45 µM; in data set [2], > 100 µM; in data set [3], > 100 µM; in data set [4], > 100 µM. In data set [5], the “SI, Selectivity index” value was >40.81.

`C[C@@H]1CC[C@H]2[C@@H](C)C(OC(=O)CCN3C(=O)C(=NOCc4ccccc4)c4ccccc43)O[C@@H]3O[C@@]4(C)CC[C@@H]1[C@]32OO4` (stereo partly drawn) [hybrid 7g, (3R,5aS,6R,8aS,9R,12R,12aR)-3,6,9-trimethyldecahydro-12H-3,12-epoxy[1,2]dioxepino[4,3-i]isochromen-10-yl 3-(3-[(benzyloxy)imino)-2-oxoindolin-1-yl]propanoate]: the IC50 in data set [1], in data set [2] and in data set [3] was > 100 µM in each case.

Take `C[C@@H]1CC[C@H]2[C@@H](C)C(OC(=O)CCCN3C(=O)C(=NOCc4ccccc4)c4ccccc43)O[C@@H]3O[C@@]4(C)CC[C@@H]1[C@]32OO4` (stereo partly drawn) [hybrid 7o, (3R,5aS,6R,8aS,9R,12R,12aR)-3,6,9-trimethyldecahydro-12H-3,12-epoxy[1,2]dioxepino[4,3-i]isochromen-10-yl 4-(3-[(benzyloxy)imino)-2-oxoindolin-1-yl]butanoate]: the IC50 in data set [1], in data set [2] and in data set [3] was > 100 µM each time.

The values above are taken from publication PMC10140581, “Development and evaluation of novel artemisinin-isatin hybrids with potential anti-leukemic cytotoxicity” (Frontiers in Oncology, 2023).
